What was measured:
[1] = system: TRAP activity in RAW 264.7; assay: Tartrate resistant acid phosphatase (TRAP) solution assay in RANKL-treated RAW 264.7 cells; type: cell-based; settings: for inhibition at 10 µM: Mus musculus, RAW264.7, 120 h, 5 days, RANKL 100 ng/mL
Protocol: 10^3 Raw 264.7 cells were cultured in 96-well plates with 100 ng/mL RANKL (R&D Systems, Minneapolis, Minn.). Cultures were incubated at 37° C. in 5% CO2 for 5 days with the addition of media containing fresh RANKL on day 3. In the TRAP solution assay, enzyme activity was examined by the conversion of α-naphthyl phosphate (4 mmol/liter; Sigma Chemical Co.) to α-naphthol in the presence of a 2 mol/liter L-tartrate solution (Sigma Chemical Co.) in each well. Absorbance was measured at 405 nm using a microplate reader (model 550; Bio-Rad Labs.) (Bandyopadhyay, S. et. el. Biochem. Pharmacol. 2006, 72, 184.).

D1 cells [2] = assay: Cell viability by MTT assay in D1 cells; type: cell-based, Balb/c mice; settings: 10 μM, % of control
Protocol: (§1) D1-cell, which is a mesenchymal stem cell line cloned from bone marrow cells of Balb/c mice, were purchased from American Type Culture Collection (Rockville, Md.). D1-cells can be induced into osteoblasts, adipocytes and chondrocytes. D1-cells were maintained in DMEM (Gibco BRL, Gaithersburg, Md.) supplemented with 10% FBS, 100 U/ml of penicillin and streptomycin.
(§2) New synthetic compounds were dissolved in DMSO to a final concentration of 10 mM and stored at −20° C. The concentration used was 10 μM and freshly diluted to the medium with a final concentration of DMSO at 0.1%. Control cultures were treated with the same amount of DMSO as used in the corresponding experiments.
(§3) The MTT assay is a calorimetric assay based on the ability of the viable cells to reduce a soluble yellow tetrazolium salt to blue formazan crystals (Carmichael, J. et. el. Cancer Research 1987, 47, 936). After compound treatments, 350 μL of MTT solution ([…] in PBS) were added to each well and incubated for 4 hrs. DMSO was then added for another 0.5 hrs to thoroughly dissolve the dark blue crystals. The absorbance at 570 nm was measured with an ELISA reader. Inhibition of mitochondrial metabolism was shown as relative activity (% of control).

D1 cells [3] = assay: Osteogenic differentiation, quantification of mineralization (Alizarin red S) in D1 cells; type: cell-based, Balb/c mice; settings: 10 μM, osteo-induction medium
Protocol: as §1, §2
(§4) Osteogenic differentiation was induced by culturing cells in an osteo-induction medium (OIM, 10% FBS, 0.1 μM dexamethasone, 10 mM β-glycerophosphate, and L-Ascorbic 2 phosphate 100 μM in low glucose DMEM) for 7-14 days. The extracellular matrix calcification was estimated by using an Alizarin red S stain (Carl, A. et al Anal. Biochem. 2004, 329, 77). The Alizarin red S-stained mineral was quantified by the osteogenesis quantification kit (CHEMICON®).

MC3T3E1 cells = assay: Osteogenic differentiation, quantification of mineralization (Alizarin red S) in MC3T3E1 cells; type: cell-based, C57BL/6 mice; settings: for Mineralization MC3T3E1 cells (12 days): 10 μM, osteo-induction medium
Protocol: MC3T3E1 cell, which is a preosteoblast cell line derived from calvaria of C57BL/6 mice, were obtained from the American Type Culture Collection (Rockville, Md.). MC3T3E1 cells were maintained in αMEM (Gibco BRL, Gaithersburg, Md.) supplemented with 10% FBS, 100 U/mL of penicillin and streptomycin.
as §2, §4

hADSCs [4] = assay: Osteogenic differentiation, quantification of mineralization (Alizarin red S) in hADSCs; type: cell-based, Human; settings: 10 μM, osteo-induction medium
Protocol: (§5) Human adipose tissue derived stem cells (hADSCs), which is derived from adipose tissue, were selected an maintained in a keratinocyte SFM medium (Gibco BRL, Gaithersburg, Md.) supplemented with 5% FBS, 100 U/ml of penicillin and streptomycin.
as §2, §4

hADSCs [5] = assay: Cell viability by MTT assay in hADSCs; type: cell-based, Human; settings: 10 μM, % of control
Protocol: as §5, §2, §3

| melting point [°C] | SMILES | inhibition at 10 µM [1] [%] | Cell viability D1 cells (3 days, MTT) (D1 cells [2]) [%] | Mineralization D1 cells (7 days) (D1 cells [3]) [%] | Mineralization MC3T3E1 cells (12 days) (MC3T3E1 cells) [%] | Mineralization hADSCs (10 days) (hADSCs [4]) [%] | Cell viability hADSCs (3 days, MTT) (hADSCs [5]) [%] | Anti-osteoporotic activities compared with compound 5c ([1]; overall statement on Tables 1 and 2 (TRAP inhibition and mineralization)) | Promotion of osteoblast activity (mineralization in MC3T3E1 cells) relative to ipriflavone (MC3T3E1 cells; more active than ipriflavone) [fold] | Osteoclast inhibitory activity (inhibition of TRAP activity in RAW 264.7) relative to ipriflavone ([1]; more active than ipriflavone) [fold] |
| --- | --- | --- | --- | --- | --- | --- | --- | --- | --- | --- |
| 153 to 154 | COc1ccc2c(=O)c(-c3ccc(OCC4CO4)cc3)coc2c1 (stereo not drawn) [Compound 3, 7-Methoxy-3-[4-(oxiran-2-ylmethoxy)phenyl]-4H-chromen-4-one] | 107 |  |  |  |  |  |  |  |  |
|  | COc1ccc(-c2coc3cc(OCC4CO4)ccc3c2=O)cc1OC (stereo not drawn) [Compound 4, 3-(3,4-Dimethoxyphenyl)-7-(oxiran-2-ylmethoxy)-4H-chromen-4-one] | 119 | 76 | 112 | 977 | 429 | 84 | comparable anti-osteoporotic activities with that of compound 5c |  |  |
| 117 to 118 | COc1ccc2c(=O)c(-c3ccc(OCC(O)CN4CCOCC4)cc3)coc2c1 (stereo not drawn) [Compound 5a, 3-[4-(2-Hydroxy-3-morpholinopropoxy)phenyl]-7-methoxy-4H-chromen-4-one] | 0 |  |  |  |  |  |  |  |  |
| 105 to 106 | COc1ccc2c(=O)c(-c3ccc(OCC(O)CNC4CC4)cc3)coc2c1 (stereo not drawn) [Compound 5b] | 103 |  |  |  |  |  |  |  |  |
| 125 to 126 | COc1ccc2c(=O)c(-c3ccc(OCC(O)CNC4CCCCC4)cc3)coc2c1 (stereo not drawn) [Compound 5c, 3-{4-[3-(Cyclohexylamino)-2-hydroxypropoxy]phenyl}-7-methoxy-4H-chromen-4-one] | 119 | 82 | 78 | 976 |  | 97 |  | 10 | 4 |
| 135 to 136 | COc1ccc(-c2coc3cc(OCC(O)CN4CCOCC4)ccc3c2=O)cc1OC (stereo not drawn) [Compound 6a, 3-(3,4-Dimethoxyphenyl)-7-(2-hydroxy-3-morpholinopropoxy)-4H-chromen-4-one] | 0 |  |  |  |  |  |  |  |  |
| 84 to 85 | COc1ccc(-c2coc3cc(OCC(O)CN4CCNCC4)ccc3c2=O)cc1OC (stereo not drawn) [Compound 6b, 3-(3,4-Dimethoxyphenyl)-7-[2-hydroxy-3-(piperazin-1-yl)propoxy]-4H-chromen-4-one] | 0 |  |  |  |  |  |  |  |  |
| 70 to 71 | COc1ccc(-c2coc3cc(OCC(O)CNC4CCCCC4)ccc3c2=O)cc1OC (stereo not drawn) [Compound 6c, 7-[3-(Cyclohexylamino)-2-hydroxypropoxy]-3-(3,4-dimethoxyphenyl)-4H-chromen-4-one] | 120 |  |  |  |  |  |  |  |  |
|  | CC(C)Oc1ccc2c(=O)c(-c3ccccc3)coc2c1 [Ipriflavone, reference compound] | 31 | 81 | 100 | 100 | 100 | 99 |  |  |  |

— US7618998B2, “Isoflavone derivatives and pharmaceutical compositions comprising the same” (Kaosiung Medical University, priority 2008, dated 2009)
